Test results as given in ChEMBL document CHEMBL5608196, “1,3,5-Triazine as a promising scaffold in the development of therapeutic agents against breast cancer” (Eur J Med Chem, 2024).

What was measured:
MCF7 [1] = assay: Inhibition of cell viability in human MCF7 cells incubated for 48 hrs by MTT assay; assay type: functional, cell-based; conditions: MCF7, 48 h
[2] = molecular target: T1, Epidermal growth factor receptor (Homo sapiens, UniProt P00533); assay: Inhibition of EGFR (unknown origin) by ELISA
T1 sequence (P00533 whole entry): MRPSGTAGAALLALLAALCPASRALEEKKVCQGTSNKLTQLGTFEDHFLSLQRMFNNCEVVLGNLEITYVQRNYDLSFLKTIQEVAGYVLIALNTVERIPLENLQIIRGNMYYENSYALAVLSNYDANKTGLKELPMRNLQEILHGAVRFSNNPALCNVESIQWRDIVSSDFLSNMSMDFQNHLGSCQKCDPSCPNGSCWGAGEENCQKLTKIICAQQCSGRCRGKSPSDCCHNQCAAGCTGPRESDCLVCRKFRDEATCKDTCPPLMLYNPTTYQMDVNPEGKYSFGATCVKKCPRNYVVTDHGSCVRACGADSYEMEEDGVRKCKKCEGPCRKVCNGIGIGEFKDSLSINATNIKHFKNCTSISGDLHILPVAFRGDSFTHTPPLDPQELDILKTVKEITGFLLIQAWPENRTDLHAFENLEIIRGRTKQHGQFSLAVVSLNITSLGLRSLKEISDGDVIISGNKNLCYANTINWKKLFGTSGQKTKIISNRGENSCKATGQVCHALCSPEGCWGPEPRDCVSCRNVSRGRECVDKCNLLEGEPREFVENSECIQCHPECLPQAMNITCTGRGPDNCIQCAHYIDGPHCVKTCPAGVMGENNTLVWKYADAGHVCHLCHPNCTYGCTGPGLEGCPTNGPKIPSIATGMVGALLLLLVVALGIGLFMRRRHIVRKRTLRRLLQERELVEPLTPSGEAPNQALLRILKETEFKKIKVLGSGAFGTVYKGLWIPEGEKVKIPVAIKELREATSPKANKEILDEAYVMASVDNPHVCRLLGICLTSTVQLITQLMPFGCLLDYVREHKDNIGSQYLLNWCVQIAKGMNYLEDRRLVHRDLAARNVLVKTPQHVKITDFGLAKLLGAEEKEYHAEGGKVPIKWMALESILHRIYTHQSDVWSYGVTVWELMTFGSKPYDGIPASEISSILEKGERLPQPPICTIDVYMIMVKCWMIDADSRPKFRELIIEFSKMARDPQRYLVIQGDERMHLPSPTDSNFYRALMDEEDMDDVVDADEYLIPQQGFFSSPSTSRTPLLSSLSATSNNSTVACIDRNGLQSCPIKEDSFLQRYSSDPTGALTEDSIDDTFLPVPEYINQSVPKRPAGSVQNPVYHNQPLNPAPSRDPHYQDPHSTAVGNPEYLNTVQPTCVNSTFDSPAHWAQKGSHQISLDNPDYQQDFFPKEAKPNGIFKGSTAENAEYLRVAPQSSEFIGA

Carbonic anhydrase 9 = Carbonic anhydrase 9 (Homo sapiens, UniProt Q16790); assay: Inhibition of human CA-IX
MCF7 [3] = assay: Anticancer activity against human MCF7 cells incubated for 24 hrs by MTT assay; assay type: functional, cell-based; conditions: MCF7, 24 h
[4] = molecular target: T1, Epidermal growth factor receptor; assay: Inhibition of EGFR (unknown origin) using Poly (Glu, Tyr) as substrate at 10 uM incubated for 40 mins in presence of ATP by Kinase-Glo Plus luminescence kinase assay relative to control
MCF7 [5] = assay: Anticancer activity against human MCF7 cells incubated for 48 hrs by MTT assay; conditions: MCF7, 48 h
MDA-MB-231 [6] = assay: Inhibition of cell survival in human MDA-MB-231 cells incubated for 72 hrs by MTT assay; assay type: functional, cell-based; conditions: MDA-MB-231, 72 h
MCF7 [7] = assay: Anticancer activity against human MCF7 cells; assay type: functional, cell-based
[8] = molecular target: T2, Phosphatidylinositol 4,5-bisphosphate 3-kinase catalytic subunit alpha isoform (Homo sapiens, UniProt P42336); assay: Inhibition of PI3K-alpha (unknown origin) at 100 uM relative to control
T2 sequence (P42336 whole entry, canonical isoform): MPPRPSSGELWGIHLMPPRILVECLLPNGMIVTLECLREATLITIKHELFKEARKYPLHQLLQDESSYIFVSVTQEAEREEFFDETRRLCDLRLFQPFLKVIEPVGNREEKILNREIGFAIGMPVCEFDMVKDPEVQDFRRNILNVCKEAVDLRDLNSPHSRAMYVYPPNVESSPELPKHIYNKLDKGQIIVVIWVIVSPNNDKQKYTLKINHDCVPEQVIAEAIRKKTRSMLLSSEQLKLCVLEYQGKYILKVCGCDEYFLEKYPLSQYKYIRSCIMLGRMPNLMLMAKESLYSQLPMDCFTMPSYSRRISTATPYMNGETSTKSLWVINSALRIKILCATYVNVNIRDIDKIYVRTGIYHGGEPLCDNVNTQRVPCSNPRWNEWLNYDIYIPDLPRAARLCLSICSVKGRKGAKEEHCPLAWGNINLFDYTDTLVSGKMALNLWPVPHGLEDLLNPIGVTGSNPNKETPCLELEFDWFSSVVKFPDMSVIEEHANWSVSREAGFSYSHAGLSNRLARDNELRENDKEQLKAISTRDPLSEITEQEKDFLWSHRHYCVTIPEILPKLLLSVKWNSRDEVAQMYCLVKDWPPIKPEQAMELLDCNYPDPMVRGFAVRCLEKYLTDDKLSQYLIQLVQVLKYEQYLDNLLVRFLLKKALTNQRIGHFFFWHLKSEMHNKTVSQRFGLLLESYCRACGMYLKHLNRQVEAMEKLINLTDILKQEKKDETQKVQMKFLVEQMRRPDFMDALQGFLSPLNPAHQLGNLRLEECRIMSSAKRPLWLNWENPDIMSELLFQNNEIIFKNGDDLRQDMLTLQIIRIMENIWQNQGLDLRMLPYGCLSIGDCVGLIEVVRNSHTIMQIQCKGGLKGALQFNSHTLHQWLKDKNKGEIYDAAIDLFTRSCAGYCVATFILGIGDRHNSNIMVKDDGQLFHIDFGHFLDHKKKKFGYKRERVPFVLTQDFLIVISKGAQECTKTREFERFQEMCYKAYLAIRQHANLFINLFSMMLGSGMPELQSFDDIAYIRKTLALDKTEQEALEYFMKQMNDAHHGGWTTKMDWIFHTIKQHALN

MDA-MB-231 [9] = assay: Cytotoxicity against human MDA-MB-231 cells incubated for 72 hrs by MTT assay; assay type: functional, cell-based; conditions: MDA-MB-231, 72 h
MCF7 [10] = assay: Anti-proliferative activity against human MCF7 cells incubated for 72 hrs by MTT assay; assay type: functional, cell-based; conditions: MCF7, 72 h
MCF7 [11] = assay: Anti-proliferative activity against human MCF7 cells by MTT assay; assay type: functional, cell-based
MCF7 [12] = assay: Cytotoxicity against human MCF7 cells assessed as cell growth inhibition incubated for 72 hrs by MTT assay; assay type: functional, cell-based; conditions: MCF7, 72 h
MCF7 [13] = assay: Anti-cancer activity against human MCF7 cells; assay type: functional, cell-based
MCF7 [14] = assay: Anticancer activity against human MCF7 cells incubated for 24 to 72 hrs by MTT assay; assay type: functional, cell-based
[15] = Inhibition of PI3K (unknown origin); set-up: species or system Homo sapiens
MCF7 [16] = assay: Antitumor activity against human MCF7 cells by MTT assay
[17] = molecular target: Serine/threonine-protein kinase mTOR (Homo sapiens, UniProt P42345); assay: Inhibition of mTOR (unknown origin)
MDA-MB-468 [18] = assay: Anticancer activity against human MDA-MB-468 cells assessed as cell growth inhibition incubated for 48 hrs by SRB assay; assay type: functional, cell-based; conditions: MDA-MB-468, 48 h
MDA-MB-468 [19] = assay: Anticancer activity against human MDA-MB-468 cells assessed as cell growth inhibition under hypoxia incubated for 48 hrs by SRB assay relative to control; assay type: functional
[20] = molecular target: T1, Epidermal growth factor receptor; assay: Inhibition of EGFR (unknown origin)
MCF7 [21] = assay: Cytotoxicity against human MCF7 cells
MDA-MB-468 [22] = assay: Anticancer activity against human MDA-MB-468 cells assessed as cell growth inhibition under normoxia at 10 uM incubated for 48 hrs by SRB assay relative to control; assay type: functional; conditions: read-out: GI
[23] = molecular target: T2, Phosphatidylinositol 4,5-bisphosphate 3-kinase catalytic subunit alpha isoform; assay: Inhibition of PI3K-alpha (unknown origin)
MDA-MB-231 [24] = assay: Antiproliferative activity against human MDA-MB-231 cells; assay type: functional, cell-based
MCF7 [25] = assay: Inhibition of cell proliferation of human MCF7 cells incubated for 24 hrs by MTT assay; assay type: functional, cell-based; conditions: MCF7, 24 h
MDA-MB-231 [26] = assay: Inhibition of cell proliferation of human MDA-MB-231 cells incubated for 24 hrs by MTT assay; assay type: functional, cell-based; conditions: MDA-MB-231, 24 h

Question: For `CN(C)c1nc(Cl)nc(NC2=NN(c3ccc(Br)cc3)C(c3ccc(C(F)(F)F)cc3)C2)n1` (stereo unspecified), which IC50 (MCF7 [1]) is on record?
Answer: 12.8 nM

Question: What about the IC50 [2] of the same compound?
Answer: 287 nM

Question: Which Ki (Carbonic anhydrase 9) does the source give for `NS(=O)(=O)c1ccc(CNc2nc(Cl)nc(Nc3ccc(O)cc3)n2)cc1` here?
Answer: 0.4 nM

Question: Which IC50 (MCF7 [3]) does the source give for `CCOC(=O)C1=CN(c2nc(Nc3cccc(F)c3)nc(Nc3cccc(F)c3)n2)C(=S)NC1c1ccccc1OC` (stereo unspecified) here?
Answer: 47400 nM

Question: And the inhibition [4]?
Answer: 94.3%

Question: What does the source list for `O=[N+]([O-])c1ccc(Nc2nc(NC(=S)NNc3ccnc4ccccc34)nc(Nc3ccc([N+](=O)[O-])cc3)n2)cc1`?
Answer: inhibition [4]: 96.3%; IC50 (MCF7 [5]): 52200 nM

Question: For `Nc1nc(COC(=O)c2ccc([N+](=O)[O-])cc2)nc(Nc2ccccc2)n1`, which IC50 (MDA-MB-231 [6]) is on record?
Answer: 6000 nM

Question: Which IC50 (MCF7 [7]) does the source give for `CCN(CC)c1nc(Nc2ccc(S(=O)(=O)NC(=N)N)cc2)nc(NN2CCOCC2)n1` here?
Answer: > 100000 nM

Question: And the inhibition [8]?
Answer: 68%

Question: Which IC50 (MDA-MB-231 [9]) does the source give for `Cc1cc(/C=N/NC(=O)Nc2ccc(-c3nc(N4CCOCC4)nc(N4CCOCC4)n3)cc2)cc(C)c1O` here?
Answer: 400 nM

Question: Which IC50 (MCF7 [10]) does the source give for `C(=N\Nc1nc(N2CCOCC2)nc(N2CCOCC2)n1)/c1ccccc1` here?
Answer: 1000 nM

Question: For `COc1nc(N/N=C/c2ccccc2)nc(-c2ccc(N)cc2)n1`, which IC50 (MCF7 [11]) is on record?
Answer: 3980 nM

Question: For `COc1cc(-c2nc(N)nc(Nc3ccc(C)cc3)n2)cc(OC)c1OC`, which IC50 (MCF7 [12]) is on record?
Answer: > 20000 nM

Question: With `Cc1nc2cc(Br)c(Br)cc2c(=O)n1-c1ccc(Nc2nc(N3CCCCC3)nc(N3CCOCC3)n2)cc1` as the compound, how does the IC50 (MCF7 [5]) read?
Answer: 17200 nM

Question: For `NCc1ccc(-c2nc(N/N=C/c3ccc(Br)cc3)nc(N3CCCCC3)n2)cc1`, which IC50 (MCF7 [11]) is on record?
Answer: 4630 nM

Question: Which IC50 (MCF7 [13]) does the source give for `COc1nc(OC)nc(-c2nc(-c3nnc(-c4cc([N+](=O)[O-])c(Br)c([N+](=O)[O-])c4)o3)co2)n1` here?
Answer: 95 nM

Question: For `CN(C)c1nc(Cl)nc(NC2=NN(c3ccc(C(F)(F)F)cc3)C(c3ccc(C(F)(F)F)cc3)C2)n1` (stereo unspecified), which IC50 (MCF7 [1]) is on record?
Answer: 70.7 nM

Question: And the IC50 [2]?
Answer: 229 nM

Question: Which IC50 (MCF7 [13]) does the source give for `COc1nc(OC)nc(-c2nc(-c3nnc(-c4cc([N+](=O)[O-])cc([N+](=O)[O-])c4)o3)co2)n1` here?
Answer: 1340 nM

Question: Which IC50 (MCF7 [14]) does the source give for `Cc1nc2ccc(Br)cc2c(=O)n1Nc1nc(Nc2ccc([N+](=O)[O-])cc2)nc(N2CCNCC2)n1` here?
Answer: 9540 nM

Question: For `NCc1ccc(-c2nc(N/N=C/c3ccc(Cl)cc3)nc(N3CCCCC3)n2)cc1`, which IC50 (MCF7 [10]) is on record?
Answer: 3290 nM

Question: For `FC(F)c1nc2ccccc2n1-c1nc(N2CCOCC2)nc(N2CCOCC2)n1` [ZSTK-474], which IC50 [15] is on record?
Answer: 37 nM

Question: Which IC50 (MCF7 [7]) does the source give for `CCN(CC)c1nc(Nc2ccccc2)nc(Nc2ccc(S(=O)(=O)NC(=N)N)cc2)n1` here?
Answer: 17500 nM

Question: For `Nc1ncc(-c2nc(-c3ccc(CN4CCOCC4)s3)nc(N3CCOCC3)n2)cn1`, which IC50 (MCF7 [16]) is on record?
Answer: 2650 nM

Question: And the IC50 [17]?
Answer: 69 nM

Question: What does the source list for `N#C/C(=C\c1cccc(F)c1)c1nc(N)nc(Nc2ccc(S(N)(=O)=O)cc2)n1`?
Answer: IC50 (MDA-MB-468 [18]): 1480 nM; growth inhibition (GI) (MDA-MB-468 [19]): 65%

Question: Which IC50 (MCF7 [13]) does the source give for `COc1cc(OC)cc(-c2nnc(-c3coc(-c4nc(OC)nc(OC)n4)n3)o2)c1` here?
Answer: 110 nM

Question: Which IC50 (MCF7 [7]) does the source give for `Cc1cc(C)n(-c2nc(Nc3ccc(Br)cc3)nc(N3CCOCC3)n2)n1` here?
Answer: 4530 nM

Question: What about the IC50 [20] of the same compound?
Answer: 61 nM

Question: With `CCOC(=O)C1=CN(c2nc(Nc3cccc(F)c3)nc(Nc3cccc(F)c3)n2)C(=S)NC1c1ccc(F)cc1` (stereo unspecified) as the compound, how does the IC50 (MCF7 [3]) read?
Answer: 41500 nM

Question: What about the inhibition [4] of the same compound?
Answer: 96.4%

Question: Which IC50 [17] does the source give for `CNC(=O)Nc1ncc(-c2nc(-c3ccc(CN4CCN(S(C)(=O)=O)CC4)s3)nc(N3CCOCC3)n2)cn1` here?
Answer: 10.9 nM

Question: And the IC50 (MCF7 [21])?
Answer: 30 nM

Question: With `CC1=NN(c2nc(Nc3ccc(Cl)cc3)nc(-n3nc(C)cc3C)n2)C(C)C1` (stereo unspecified) as the compound, how does the IC50 (MCF7 [7]) read?
Answer: 2290 nM

Question: What does the source list for `CN(C)c1ccc(/C=C(\C#N)c2nc(N)nc(Nc3ccc(S(N)(=O)=O)cc3)n2)cc1`?
Answer: inhibition of growth at 10 µM (MDA-MB-468 [22]): 62%; IC50 (MDA-MB-468 [18]): 1480 nM; growth inhibition (GI) (MDA-MB-468 [19]): 60%

Question: For `CN(C)C(=O)C1CCC(Oc2nc(-c3cccc4[nH]ncc34)nc(N3CCOCC3)n2)CC1` (stereo unspecified), which IC50 [23] is on record?
Answer: 60 nM

Question: For `Cc1nc2cc(Br)c(Br)cc2c(=O)n1-c1ccc(Nc2nc(Nc3ccc(Br)cc3)nc(N3CCCCC3)n2)cc1`, which IC50 (MCF7 [5]) is on record?
Answer: 17800 nM

Question: With `CN(C)c1ccc(-c2nc(N)nc(Nc3ccccc3F)n2)cc1` as the compound, how does the IC50 (MCF7 [12]) read?
Answer: > 20000 nM

Question: Which IC50 (MCF7 [7]) does the source give for `CCN(CC)c1nc(Nc2ccc(S(=O)(=O)NC(=N)N)cc2)nc(NC2CCCCC2)n1` here?
Answer: 18400 nM

Question: For `CC1CCN(c2nc(Cl)nc(Oc3ccc(-c4coc5cc(Oc6nc(Cl)nc(N7CCC(C)CC7)n6)cc(O)c5c4=O)cc3)n2)CC1`, which IC50 (MDA-MB-231 [24]) is on record?
Answer: 23100 nM

Question: With `CC1=NN(c2nc(Nc3ccc(Br)cc3)nc(-n3nc(C)cc3C)n2)C(C)C1` (stereo unspecified) as the compound, how does the IC50 (MCF7 [7]) read?
Answer: 2660 nM

Question: With `Cc1nc2cc(Br)c(Br)cc2c(=O)n1-c1ccc(Nc2nc(Nc3ccc(Cl)cc3)nc(N3CCCCC3)n2)cc1` as the compound, how does the IC50 (MCF7 [5]) read?
Answer: 18400 nM

Question: For `Cc1nc2ccc(Br)cc2c(=O)n1Nc1nc(Nc2cccc(Cl)c2)nc(N2CCNCC2)n1`, which IC50 (MCF7 [14]) is on record?
Answer: 7160 nM

Question: With `COc1nc(Nc2ccc(C#N)cc2)nc(N2CCOCC2)n1` as the compound, how does the IC50 (MCF7 [25]) read?
Answer: 4290 nM

Question: What about the IC50 (MDA-MB-231 [26]) of the same compound?
Answer: 7800 nM

Question: Which IC50 (MCF7 [14]) does the source give for `CNc1nc(Nn2c(C)nc3ccc(Br)cc3c2=O)nc(N2CCNCC2)n1` here?
Answer: 9520 nM

Question: With `COc1nc(Nc2ccc(C#N)cc2)nc(-c2ccc(N)cc2)n1` as the compound, how does the IC50 (MCF7 [25]) read?
Answer: 770 nM

Question: What about the IC50 (MDA-MB-231 [26]) of the same compound?
Answer: 8430 nM

Question: Which IC50 (MDA-MB-231 [9]) does the source give for `C=CCc1cc(C)cc(/C=N/NC(=O)Nc2ccc(-c3nc(N4CCOCC4)nc(N4CCOCC4)n3)cc2)c1O` here?
Answer: 600 nM

Question: For `COc1ccc(Nc2nc(N3CCOCC3)nc(-n3nc(C)cc3C)n2)cc1`, which IC50 (MCF7 [7]) is on record?
Answer: 2930 nM

Question: With `CS(=O)(=O)N1CCN(Cc2ccc(-c3nc(-c4cnc(N)nc4)nc(N4CCOCC4)n3)s2)CC1` as the compound, how does the IC50 (MCF7 [16]) read?
Answer: 1250 nM

Question: And the IC50 [17]?
Answer: 48 nM

Question: For `COc1nc(OC)nc(-c2nc(-c3nnc(-c4cc(OC)c(OC)c(OC)c4)o3)co2)n1`, which IC50 (MCF7 [13]) is on record?
Answer: 25 nM

Question: Which inhibition [4] does the source give for `CCN(CC)c1nc(NC(=S)NNc2ccnc3ccccc23)nc(N(CC)CC)n1` here?
Answer: 90.5%

Question: What about the IC50 (MCF7 [5]) of the same compound?
Answer: 32300 nM

Question: With `COc1ccc(/C=N/NC(=O)Nc2ccc(-c3nc(N4CCOCC4)nc(N4CCOCC4)n3)cc2)cc1` as the compound, how does the IC50 (MDA-MB-231 [9]) read?
Answer: 520 nM

Question: For `COc1ccc(Nc2nc(N3CCCC3)nc(-n3nc(C)cc3C)n2)cc1`, which IC50 (MCF7 [7]) is on record?
Answer: 3760 nM
